Measurements taken from patent US6833380B2, “Compounds that modulate PPAR activity and methods of preparation” (Warner-Lambert Company, LLC, priority 2002, dated 2004).

Tests used:
hPPARβ chimeric receptor = target: T1, hPPARβ chimeric receptor (Homo sapiens, UniProt Q03181); test: Transient transfections assay using the HepG2 hepatoma cell line (Gal4-PPAR chimeric receptor, luciferase reporter), hPPARβ; format: cell-based; details: HepG2 cells transiently transfected, 24 hours incubation, read-out: Hep G2-hβ EC50
T1 construct: "expression plasmids encoding hPPARα, hPPARβ or mPPARγ chimeric receptors"
T1 sequence (Q03181 171-441 limits assumed): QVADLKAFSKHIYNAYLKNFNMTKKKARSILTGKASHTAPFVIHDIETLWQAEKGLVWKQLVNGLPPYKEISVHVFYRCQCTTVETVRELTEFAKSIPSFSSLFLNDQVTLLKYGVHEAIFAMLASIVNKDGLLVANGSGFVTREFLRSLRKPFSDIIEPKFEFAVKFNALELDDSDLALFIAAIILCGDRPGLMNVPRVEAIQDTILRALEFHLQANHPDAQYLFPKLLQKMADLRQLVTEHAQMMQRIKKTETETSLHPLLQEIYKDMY
Description: (§1) 1. Test A. Transient Transfections Assay using the HepG2 Hepatoma Cell Line.
(§2) HepG2 cells were transiently transfected with an expression plasmids encoding hPPARα, hPPARβ or mPPARγ chimeric receptors and a reporter containing the yeast upstream activating sequence (UAS) upstream of the viral E1B promoter controlling a luciferase reporter gene. In addition, the plasmid pRSVβ-gal was used to control for transfection efficiency. HepG2 cells were grown in DMEM supplemented with 10% FBS and […] non-essential amino acid. On the first day, cells were split into 100 mm dishes at 2.5×10^6/dish and incubated overnight at 37° C./5% CO2. On the second day the cells were transiently transfected with plasmid DNA encoding a chimeric receptor, the luciferase reporter gene; and β-gal. For each 100 mm dish, 15 μg of lucifease reporter (PG5E1b) DNA, 15 μg of Gal4-PPAR chimeric receptor DNA, and 1.5 μg of β-gal plasmid DNA were mixed with 1.4 ml of opti-MEM in the tube. 28 μl of LipoFectamine-2000 reagent was added to 1.4 ml of opti-MEM in the tube, and incubate for 5 min at RT. The diluted Lipofectamine-2000 reagent was combined with the DNA mixture, and incubate for 20 min at RT. After fresh medium was added to each 100 mm dish of cells, 2.8 ml of Lipofectamine2000-DNA mixture was added dropwise to the 100 mm dish containing 14 ml of medium, and incubate 37° C. overnight. On day three cells were trypsinized off the 100 mm dishes and re-plated on 96 well plates. Cells were plated at 2.5×10^4 cells per well in 150 μl of media and 50 μl of compound diluted by media was added. The test compound added were in the range from 50 μM to 50 pM. After addition of compounds, the plates were incubated at 37° C. for 24 hours. Subsequently cells were washed with once with 100 μl of PBS, lysed, and processed for measuring luciferase and β-gal activity using Dual-Light luciferase kit from Tropix®, according to the manufacturer's recommendations, on an EG&G Bethold MicroLumat LB96P luminometer. EC50 values were obtained using the GraphPad Prism™ program. […] Accordingly, the compounds of the present invention should find considerable therapeutic applications for hypercholesterolemia and hyperlipidemia.

hPPARα chimeric receptor = target: T2, hPPARα chimeric receptor (Homo sapiens, UniProt Q07869); test: Transient transfections assay using the HepG2 hepatoma cell line (Gal4-PPAR chimeric receptor, luciferase reporter), hPPARα; format: cell-based; details: HepG2 cells transiently transfected, 24 hours incubation, read-out: Hep G2-hα EC50
T2 construct: "expression plasmids encoding hPPARα, hPPARβ or mPPARγ chimeric receptors"
T2 sequence (Q07869 200-468 limits assumed): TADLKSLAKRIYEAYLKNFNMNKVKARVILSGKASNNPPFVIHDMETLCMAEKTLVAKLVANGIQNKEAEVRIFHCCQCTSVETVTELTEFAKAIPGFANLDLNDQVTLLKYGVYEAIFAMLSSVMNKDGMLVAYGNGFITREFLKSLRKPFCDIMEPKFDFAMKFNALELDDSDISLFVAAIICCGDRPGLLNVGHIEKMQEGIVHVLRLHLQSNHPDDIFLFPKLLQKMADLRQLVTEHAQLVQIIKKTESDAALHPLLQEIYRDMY
Description: as §1, §2

Compound | EC50 (hPPARβ chimeric receptor) [nM] | melting point [°C] | EC50 (hPPARα chimeric receptor) [nM]
Cc1nc(-c2ccc(C(F)(F)F)cc2)sc1CSc1ccc(OCC(=O)O)c2c1OCCC2 [Example 1, {8-[4-Methyl-2-(4-trifluoromethyl-phenyl)-thiazol-5-ylmethylsulfanyl]-chroman-5-yloxy}-acetic acid] | 187 |  | 
Cc1nc(-c2ccc(C(F)(F)F)cc2)sc1CSc1ccc(OCC(=O)O)c2c1CCCC2 [Example 2, {4-[4-Methyl-2-(4-trifluoromethyl-phenyl)-thiazol-5-ylmethylsulfanyl]-5,6,7,8-tetrahydro-naphthalen-1-yloxy}-acetic acid] | 52 | 166 to 167 | 2970
Cc1nc(-c2ccc(C(F)(F)F)cc2)sc1CSc1ccc(OCC(=O)O)c2ccccc12 [Example 3, {4-[4-Methyl-2-(4-trifluoromethyl-phenyl)-thiazol-5-ylmethylsulfanyl]-naphthalen-1-yloxy}-acetic acid] | 76 | 181 to 183 | 3580
Cc1cc(SCc2sc(-c3ccc(C(F)(F)F)cc3)nc2C)c2c(c1OCC(=O)O)CCCO2 [Example 4, 2-[6-methyl-8-({4-methyl-2-[4-(trifluoromethyl)phenyl](1,3-thiazol-5-yl)}methylthio)chroman-5-yloxy]acetic acid] | 45 | 203.5 to 205.5 | 1760
Cc1cc(SCc2sc(-c3ccc(C(F)(F)F)cc3)nc2C)c2c(c1OCC(=O)O)CCO2 [Example 5, 2-[5-methyl-7-({4-methyl-2-[4-(trifluoromethyl)phenyl](1,3-thiazol-5-yl)}methylthio)-2,3-dihydrobenzo[b]furan-4-yloxy]acetic acid] | 0.8 | 157 to 158 | 52
Cc1cc(SCc2sc(-c3ccc(C(F)(F)F)cc3)nc2C)c2c(c1OCC(=O)O)CCC2 [Example 6, {5-Methyl-7-[4-methyl-2-(4-trifluoromethyl-phenyl)-thiazol-5-ylmethylsulfanyl]-indan-4-yloxy}-acetic acid] | 133 | 184 | 191
